Test [1] concerns model of memory impairment induced by scopolamine. The test can be described thus: Passive avoidance test in scopolamine-induced memory impairment model. The test is classed as in vivo, ICR mice. The note with it: for Main Experiment / Passive Avoidance Learning: scopolamine 1 mg/Kg i.p.; for Main Experiment: latency 24 h after learning; for latency time extended compared to that of the control 2: main experiment, control 2 = scopolamine. Here is the method: (§1) An experiment was conducted to confirm effects of swertisin or isoorientin, and extracts of Swertia pseudochinensis or Swertia japonica containing the same prepared in Examples 1 to 3 in treating dementia by using a model of memory impairment induced by scopolamine. Detailed method follows.
(§2) Six-week old ICR mice in about 26 g to 28 g (Orientbio Inc, Republic of Korea) were received water and feed without constraint and adapted for 5 days under an environment having about 23±1° C. of temperature, about 60±10% of humidity and 12-hour light/dark cycle (animal laboratory at College of Pharmacy, Kyung-Hee University), and then used for the experiment.
An apparatus for measuring passive avoidance reaction was prepared. The apparatus has 2 separated chambers (the first and second chambers) and there is a guillotine-shaped passage that connects the first chamber and the second chamber. The first chamber was maintained brightly by using a light, and the second chamber was maintained darkly. A grid was installed on the floor of the second chamber. The grid generates 0.5 mA of electric shock for 3 seconds when the laboratory animal moved into the dark chamber.
About 30 minutes later, 1 mg/Kg of scopolamine, which was dissolved in distilled water, was intraperitoneally administered to the drug administration groups 1 to 4 and controls 1 and 2 (Ebert, U. et al., Eur. J. Clin. Invest., 28, pp 944-949, 1998), and 0.9% of saline solution was intraperitoneally administered to the control 3. After 30 minutes, passive avoidance learning was conducted on the drug administration groups 1-4 and controls 1-3. In detail, the mice were located in the first chamber (i.e. bright space) and the passage was open after about 20 seconds of observation time, and then latency time of the mice moving to the second chamber (i.e. dark space) was measured.
Twenty-four hours after the passive avoidance learning, a main experiment was conducted on the drug administration groups 1-4 and controls 1-3. Latency time of the mice of each group moving their 4 legs into the dark space after 10 seconds of observation time from opening of the guillotine-shaped passage was measured up to 300 seconds. It means that the passive avoidance learning and memory are better if the latency time is longer.
The passive avoidance test was conducted on the drug administration groups 1-4 and controls 1-3 in the same manner as the method explained above except that swertisin, which is one of the flavone-6-C-β-D-glucose derivatives prepared in Example 3, was dissolved in 10% Tween 80 and administered to the drug administration groups 1-4 in amounts of 1.25 mg/kg, 2.5 mg/kg, 5 mg/kg and 10 mg/kg respectively.
The passive avoidance test was conducted on the drug administration groups 1-4 and controls 1-3 in the same manner as Experimental Example 1-1 except that isoorientin, which is one of the flavone-6-C-β-D-glucose derivatives prepared in Example 3, was dissolved in 10% Tween 80 and administered to the drug administration groups 1-4 in amounts of 1.25 mg/kg, 2.5 mg/kg, 5 mg/kg and 10 mg/kg respectively.
The passive avoidance test was conducted on the drug administration groups 1-3 and controls 1-3 in the same manner as Experimental Example 1-1 except that a 70% ethanol extract of Swertia japonica prepared in Example 1, was dissolved in 10% Tween and administered to the drug administration groups 1-3 in amounts of 100 mg/kg, 200 mg/kg and 400 mg/kg respectively.
The passive avoidance test was conducted on the drug administration groups 1-3 and controls 1-3 in the same manner as Experimental Example 1-1 except that a 70% ethanol extract of Swertia pseudochinensis prepared in Example 2, was dissolved in 10% Tween 80 and administered to the drug administration groups 1-3 in amounts of 100 mg/kg, 200 mg/kg and 400 mg/kg respectively.

Test [2] shares this test system. The test can be described thus: Y-maze test in scopolamine-treated mice. The test is classed as in vivo, ICR mice. The settings on record: donepezil 5 mg/Kg (Control 1), scopolamine 1 mg/Kg i.p. Here is the method: as §1, §2
A Y-maze was prepared for the experiment. The Y-maze has 3 branches and each branch has 42 cm of length, 3 cm of width and 12 cm of height. Angle between any two arms is 120 degrees and the arms were made of black polyvinyl resin.
The mice prepared in the above 1) were separated into 5 groups (10 mice per each group) comprised of drug administration groups 1 and 2, and controls 1 to 3.
The swertisin prepared in Example 3 (8 mg) was dissolved in 4 mL of 10% Tween 80 (Polyoxyethylene sorbitan monooleate: Sigma, U.S.A.), and administered to the drug administration groups 1 and 2 in an amounts of 5 mg/Kg and 10 mg/Kg respectively. Meanwhile, 5 mg/Kg of donepezil was administered to the control 1, and 0.15 mL of 10% Tween 80 was administered to the controls 2 and 3 respectively.
About 30 minutes later, 1 mg/Kg of scopolamine, which was dissolved in distilled water, was intraperitoneally administered to the drug administration groups 1 and 2, and controls 1 and 2 (Ebert, U. et al., Eur. J. Clin. Invest., 28, pp. 944-949, 1998), and 0.9% of saline solution was intraperitoneally administered to the control 3.
After 30 minutes, mice of the drug administration groups 1 and 2, and the controls 1-3 were carefully located on each branches of the Y-maze, which was divided as A, B and C respectively, and let the mice move freely for 8 minutes, and then recorded branches where mice have entered. The entrance was recorded when the entire body (i.e. including the tail) has completely entered. It was also recorded when the mice entered again into the branch that the mice have entered before.
One point was scored when the mouse sequentially entered into 3 different branches (actual alternation). Alternation behavior is defined as sequentially entering into every 3 branch, and it was converted into % via Equation 1 below (Sarter, M. et al., Psychopharmacology., 94, pp. 491-495, […]).

Each structure is given as a SMILES string.

With `COc1cc2c(cc1OC)C(=O)C(CC1CCN(Cc3ccccc3)CC1)C2` (stereo not drawn) [Donepezil, donepezil, reference compound], the “Main Experiment” value in test [1] (Table 2, Control 1 (Donepezil), dose not given) worked out at 138.7 ± 34.03 s; in test [1] (Table 3, Control 1 (Donepezil), dose not given), 127.8 ± 11.43 s; in test [1] (Table 4, Control 1 (Donepezil), dose not given) it was 169.6 ± 79.98; in test [1] (Table 5, Control 1 (Donepezil), dose not given) it was 159.6 ± 65.51. Further, the “Passive Avoidance Learning” value in test [1] (Table 2, Control 1 (Donepezil), dose not given, learning trial) was determined as 25.60 ± 10.83 s; in test [1] (Table 3, Control 1 (Donepezil), dose not given, learning trial), 21.30 ± 4.964 s; in test [1] (Table 4, Control 1 (Donepezil), dose not given, learning trial) it was 26.40 ± 16.23; in test [1] (Table 5, Control 1 (Donepezil), dose not given, learning trial), 28.10 ± 19.02. For the same compound, in test [2] (Table 6, 8 minutes in Y-maze), the “Alternation Behavior (%)” value was determined as 61.49 ± 5.447%. Also, in test [2] (Table 7, total number of entry to each branch, 8 minutes), the “Total Entry” value stood at 29.30 ± 4.296.

In the case of `O=c1cc(-c2ccc(O)c(O)c2)oc2cc(O)c([C@@H]3O[C@H](CO)[C@@H](O)[C@H](O)[C@H]3O)c(O)c12` [isoorientin], the “Main Experiment” value in test [1] (Table 3, isoorientin 1.25 mg/kg, up to 300 seconds) was found to be 41.00 ± 7.988 s; in test [1] (Table 3, isoorientin 2.5 mg/kg, up to 300 seconds) it was 80.90 ± 19.44 s; in test [1] (Table 3, isoorientin 5 mg/kg, up to 300 seconds), 119.3 ± 73.43 s; in test [1] (Table 3, isoorientin 10 mg/kg, up to 300 seconds), 102.8 ± 15.89 s. The “Passive Avoidance Learning” value in test [1] (Table 3, isoorientin 1.25 mg/kg, latency in learning trial) stood at 43.60 ± 5.340 s; in test [1] (Table 3, isoorientin 2.5 mg/kg, latency in learning trial) it was 40.00 ± 5.499 s; in test [1] (Table 3, isoorientin 5 mg/kg, latency in learning trial), 35.20 ± 5.236 s; in test [1] (Table 3, isoorientin 10 mg/kg, latency in learning trial), 26.80 ± 5.085 s. The “latency time extended compared to that of the control 2” value in test [1] (isoorientin 2.5 mg/Kg) is “about 2 fold”; in test [1] (isoorientin 5 mg/Kg), “about 3 fold”; in test [1] (isoorientin 10 mg/Kg) it was “about 2.5 fold”.

The values are drawn from patent US10251902B2, “Pharmaceutical composition for treating or preventing neuropsychiatric disease, containing flavone-6-C-glucose derivatives as active ingredients” (priority 2013, dated 2019).
